Laboratory results from patent US8623830B2, “Compositions containing α-1-antitrypsin and methods for use” (Beth Israel Deaconess Medical Center, Inc., priority 2006, dated 2014).

How the values were obtained:
[1] = subcutaneous injection of 25 mg twice a week; average; cited from earlier work
[2] = tested on: 1-AZT, a misfolded but functionally active mutant of α1-antitrypsin; conditions: model cell culture system; cited from earlier work
[3] = tested on: insulin receptor substrate-1 (IRS-1); test: In vivo insulin signaling in skeletal muscle, immunoblotting of IRS-1 phosphorylation; parameters: species or system mouse; conditions: skeletal muscle of new onset diabetic NOD mice, FIG. 1
Procedure: (§1) FIG. 1 is a pair of bar graphs representing the results obtained from studies of insulin signaling in skeletal muscle. The upper graph charts insulin receptor (IR) phosphorylation and the lower graph charts insulin receptor substrate-1 (IRS-1) phosphorylation in control, diabetic, and treated animals.
(§2) In vivo insulin signaling experiments were performed on mice after a 16 hour fast. Mice were injected i.p. with 20 U/kg BW of human insulin (Eli Lilly) or saline. Skeletal muscle (gastronemius) was dissected and frozen in liquid nitrogen for immunoblotting analysis of insulin signaling proteins.
(§3) Skeletal muscle (gastronemius), obtained in the context of our in vivo insulin signaling studies, was homogenized in a modified radioimmunoprecipitation assay (RIPA) buffer containing 50 mM Tris-HCl, 1 mM EDTA, 1% NP-40, 0.25% sodium deoxycholate, 150 mM NaCl, 1 mM PMSF, 200 μM […], supplemented with 1% protease inhibitor cocktail (Sigma), and 1% tyrosine phosphatase inhibitor cocktail (Sigma). Cell homogenates were incubated on ice for 45 minutes to solubilize all proteins, and insoluble portions were removed by centrifugation at 14,000 g at 4° C. for 15 minutes. Whole cell lysates were separated by SDS-polyacrylamide gel electrophoresis (PAGE). […] The blots were quantified using densitometry (Molecular Dynamics, Sunnvale, Calif.).

[4] = tested on: new onset diabetic NOD mice; test: Treatment of new onset diabetic NOD mice, blood glucose monitoring (normoglycemia); format: in vivo, mouse
Description: Female NOD (NOD/LtJx) mice and NOD.SCID (NOD.CB17-Prkdc^scid/J) were purchased from Jackson Laboratories (Bar Harbor, Me.) at 4 weeks of age and maintained under pathogen-free conditions in a conventional animal facility at Massachusetts General Hospital (Boston, Mass.). All animal studies were approved by our institutional review boards. The blood glucose levels of NOD mice were monitored weekly with the ACCU-CHECK® blood glucose monitor system (Roche, Indianapolis, Ind.). […] For syngeneic islet transplant recipients, blood glucose levels were checked at the time of transplantation, then daily for the first two weeks, and then 2 to 3 times per week afterward.
ARALAST™ (α1-proteinase inhibitor, human) is a major serum serine-protease inhibitor that inhibits the enzymatic activity of neutrophil elastase, cathespin G, proteinase 3, thrombin, trypsin, and chymotrypsin. ARALAST™ was purchased from Baxter (Westlake Village, Calif.) and was given at a dose of 2 mg i.p. every 3 days, for a total of 5 injections.

insulin receptor (IR) = test: In vivo insulin signaling in skeletal muscle, immunoblotting of IR phosphorylation; parameters: species or system mouse; conditions: skeletal muscle of new onset diabetic NOD mice, FIG. 1
Procedure: as §1, §2, §3

[5] = cited from earlier work

## Etanercept
[1]
  Time to peak blood levels: 72 h

## O=C(O)CCCc1ccccc1 [PBA, 4-phenylbutyric acid]
[2]
  Secretion of 1-AZT: marked increase

## Aralast ™: α1-proteinase inhibitor, human; major serum serine-protease inhibitor, purchased from Baxter
[3]
  Phosphorylation of insulin receptor substrate-1 (IRS-1): restored
[4]; animals still alive at writing
  Days after treatment (how long the animals have been normoglycemic): 90 to 300 days
Insulin receptor (IR)
  Tyrosyl-phosphorylation of insulin receptor (IR): restored

## AAT: α1-antitrypsin, plasma serine protease inhibitor (serpin)
[5]
  Half life in plasma: approximately six
[4]
  Effect of a short course on glycemia: restores normoglycemia
